Measured values from paper PMC5218480 (PLoS ONE, 2017).

System: MV-4-11 cells
Assay: Gene expression microarray analysis (Affymetrix PrimeView) and GSEA
Assay type: cell-based, human
Design: RFU PODN (11730768_x_at) / Fold change /veh PODN (11730768_x_at) / RFU LINC00158 (11744669_a_at) / Fold change /veh LINC00158 (11744669_a_at) / RFU DUSP10 (11751237_a_at) / Fold change /veh DUSP10 (11751237_a_at) / RFU ID3 (11757404_x_at) / Fold change /veh ID3 (11757404_x_at) / RFU PLEKHG5 (11737974_s_at) / Fold change /veh PLEKHG5 (11737974_s_at) / RFU LRRC4B (11730491_at) / Fold change /veh LRRC4B (11730491_at) / RFU GIMAP4 (11747438_a_at) / Fold change /veh GIMAP4 (11747438_a_at) / RFU KRT8 (11758183_x_at) / Fold change /veh KRT8 (11758183_x_at) / RFU CNN1 (11734310_a_at) / Fold change /veh CNN1 (11734310_a_at) / RFU VPS37D (11726825_at) / Fold change /veh VPS37D (11726825_at) / RFU C10orf10 (11716522_x_at) / Fold change /veh C10orf10 (11716522_x_at) / RFU KIR2DL2 /// KIR2DL4 /// KIR2DL5A /// KIR2DL5B /// KIR2DS1 /// KIR2DS2 /// KIR2DS3 /// KIR2DS4 /// KIR3DL3 /// KIR3DL3 /// KIR3DS1 (11738374_at) / Fold change /veh KIR2DL2 /// KIR2DL4 /// KIR2DL5A /// KIR2DL5B /// KIR2DS1 /// KIR2DS2 /// KIR2DS3 /// KIR2DS4 /// KIR3DL3 /// KIR3DL3 /// KIR3DS1 (11738374_at) / RFU C1QL1 (11718748_at) / Fold change /veh C1QL1 (11718748_at) / RFU TMPRSS4 (11747572_a_at) / Fold change /veh TMPRSS4 (11747572_a_at) / RFU HAMP (11756126_x_at) / Fold change /veh HAMP (11756126_x_at) / RFU RNFT2 (11725882_a_at) / Fold change /veh RNFT2 (11725882_a_at) / RFU NR4A2 (11747474_a_at) / Fold change /veh NR4A2 (11747474_a_at) / RFU ABCC12 (11746883_a_at) / Fold change /veh ABCC12 (11746883_a_at) / RFU TMEM136 (11760407_x_at) / Fold change /veh TMEM136 (11760407_x_at) / RFU CLDN22 /// WWC2 (11732394_at) / Fold change /veh CLDN22 /// WWC2 (11732394_at) / RFU HLA-DPB1 (11760878_x_at) / Fold change /veh HLA-DPB1 (11760878_x_at) / RFU SPINT1 (11716480_a_at) / Fold change /veh SPINT1 (11716480_a_at) / RFU GAP43 (11754022_s_at) / Fold change /veh GAP43 (11754022_s_at) / RFU A4GNT (11735810_at) / Fold change /veh A4GNT (11735810_at) / RFU PRB3 (11715151_x_at) / Fold change /veh PRB3 (11715151_x_at) / RFU TUBB4B (11761932_at) / Fold change /veh TUBB4B (11761932_at) / RFU CAPN14 (11732068_a_at) / Fold change /veh CAPN14 (11732068_a_at) / RFU TMCC2 (11721928_a_at) / Fold change /veh TMCC2 (11721928_a_at) / RFU IRGQ (11745062_a_at) / Fold change /veh IRGQ (11745062_a_at) / RFU FAM174B (11720279_a_at) / Fold change /veh FAM174B (11720279_a_at) / RFU TMPRSS4 (11748680_a_at) / Fold change /veh TMPRSS4 (11748680_a_at) / RFU FAM212B (11763350_a_at) / Fold change /veh FAM212B (11763350_a_at) / RFU PLEKHG5 (11743358_a_at) / Fold change /veh PLEKHG5 (11743358_a_at) / RFU ZSCAN30 (11745921_a_at) / Fold change /veh ZSCAN30 (11745921_a_at) / RFU CMKLR1 (11741424_a_at) / Fold change /veh CMKLR1 (11741424_a_at) / RFU LOC101060620 /// MAPK8IP1 (11723275_at) / Fold change /veh LOC101060620 /// MAPK8IP1 (11723275_at) / RFU SPTSSB (11747773_x_at) / Fold change /veh SPTSSB (11747773_x_at) / RFU PRSS12 (11739890_at) / Fold change /veh PRSS12 (11739890_at) / RFU BIN1 (11741810_x_at) / Fold change /veh BIN1 (11741810_x_at) / RFU WNT11 (11732464_a_at) / Fold change /veh WNT11 (11732464_a_at) / RFU C10orf10 (11716521_a_at) / Fold change /veh C10orf10 (11716521_a_at) / RFU C5orf56 (11738089_at) / Fold change /veh C5orf56 (11738089_at) / RFU CYB561 (11721691_x_at) / Fold change /veh CYB561 (11721691_x_at) / RFU ANKRD19P (11752326_a_at) / Fold change /veh ANKRD19P (11752326_a_at) / RFU OR2T12 /// OR2T33 /// OR2T8 (11738714_s_at) / Fold change /veh OR2T12 /// OR2T33 /// OR2T8 (11738714_s_at) / RFU VCAN (11748164_a_at) / Fold change /veh VCAN (11748164_a_at) / RFU JSRP1 (11732532_at) / Fold change /veh JSRP1 (11732532_at) / RFU KRTAP10-11 (11738290_x_at) / Fold change /veh KRTAP10-11 (11738290_x_at) / RFU MYO3A (11730013_a_at) / Fold change /veh MYO3A (11730013_a_at) / RFU EBF3 (11725865_a_at) / Fold change /veh EBF3 (11725865_a_at) / RFU CAMK2N1 (11719241_x_at) / Fold change /veh CAMK2N1 (11719241_x_at) / RFU C5orf56 (11738088_a_at) / Fold change /veh C5orf56 (11738088_a_at) / RFU OLFML3 (11715873_a_at) / Fold change /veh OLFML3 (11715873_a_at) / RFU LOC100653217 /// NTM (11731650_a_at) / Fold change /veh LOC100653217 /// NTM (11731650_a_at) / RFU MAPK11 (11762145_a_at) / Fold change /veh MAPK11 (11762145_a_at) / RFU FIZ1 (11724087_x_at) / Fold change /veh FIZ1 (11724087_x_at) / RFU OASL (11726364_x_at) / Fold change /veh OASL (11726364_x_at) / RFU SOX15 (11748057_x_at) / Fold change /veh SOX15 (11748057_x_at) / RFU CD79A (11719716_a_at) / Fold change /veh CD79A (11719716_a_at) / RFU HIST1H1D (11736915_at) / Fold change /veh HIST1H1D (11736915_at) / RFU CASKIN2 (11723855_a_at) / Fold change /veh CASKIN2 (11723855_a_at) / RFU LOC730098 (11760151_x_at) / Fold change /veh LOC730098 (11760151_x_at) / RFU OR4N2 (11742367_at) / Fold change /veh OR4N2 (11742367_at) / RFU PRRT2 (11749266_a_at) / Fold change /veh PRRT2 (11749266_a_at) / RFU SNX32 (11753110_a_at) / Fold change /veh SNX32 (11753110_a_at) / RFU CDHR5 (11726645_a_at) / Fold change /veh CDHR5 (11726645_a_at) / RFU RCAN1 (11760418_a_at) / Fold change /veh RCAN1 (11760418_a_at) / RFU FAM167A (11723789_a_at) / Fold change /veh FAM167A (11723789_a_at) / RFU FAM26E (11764081_at) / Fold change /veh FAM26E (11764081_at) / RFU ISYNA1 (11749810_s_at) / Fold change /veh ISYNA1 (11749810_s_at) / RFU ACY1 (11761880_at) / Fold change /veh ACY1 (11761880_at) / RFU 11764098_at / Fold change /veh 11764098_at / RFU SAMD14 (11745864_x_at) / Fold change /veh SAMD14 (11745864_x_at) / RFU NPB (11741838_a_at) / Fold change /veh NPB (11741838_a_at) / RFU TMPRSS6 (11731388_a_at) / Fold change /veh TMPRSS6 (11731388_a_at) / RFU KRTAP10-2 (11738614_at) / Fold change /veh KRTAP10-2 (11738614_at) / RFU ARHGAP8 /// PRR5-ARHGAP8 (11727945_x_at) / Fold change /veh ARHGAP8 /// PRR5-ARHGAP8 (11727945_x_at) / RFU KRTAP5-7 /// NADSYN1 (11734609_at) / Fold change /veh KRTAP5-7 /// NADSYN1 (11734609_at) / RFU RASL12 (11751679_a_at) / Fold change /veh RASL12 (11751679_a_at) / RFU CDKN2B (11736163_a_at) / Fold change /veh CDKN2B (11736163_a_at) / RFU PRF1 (11729649_at) / Fold change /veh PRF1 (11729649_at) / RFU, ZNF638 /// ZNF638-IT1 / Fold change vs veh, ZNF638 /// ZNF638-IT1 / RFU, PANK3 / Fold change vs veh, PANK3 / RFU, SH3YL1 / Fold change vs veh, SH3YL1 / RFU, ZEB2 / Fold change vs veh, ZEB2 / RFU, NRIP1 / Fold change vs veh, NRIP1 / RFU, PTTG1IP / Fold change vs veh, PTTG1IP / RFU, CAPN2 / Fold change vs veh, CAPN2 / RFU, MED14 / Fold change vs veh, MED14 / RFU, SNORA58 / Fold change vs veh, SNORA58 / RFU, C1orf63 / Fold change vs veh, C1orf63 / RFU, LRRFIP1 / Fold change vs veh, LRRFIP1 / RFU, NDUFAF7 / Fold change vs veh, NDUFAF7 / RFU, SLC12A2 / Fold change vs veh, SLC12A2 / RFU, IBTK / Fold change vs veh, IBTK / RFU, ESF1 / Fold change vs veh, ESF1 / Fold change vs veh, TMEM50B / RFU, TAOK1 / Fold change vs veh, TAOK1 / RFU, ACBD3 / Fold change vs veh, ACBD3 / RFU, TMA16 / Fold change vs veh, TMA16 / RFU, RWDD3 / Fold change vs veh, RWDD3 / RFU, BCAT1 / Fold change vs veh, BCAT1 / RFU, EDEM3 / Fold change vs veh, EDEM3 / RFU, TMEM33 / Fold change vs veh, TMEM33 / RFU, WDR75 / Fold change vs veh, WDR75 / RFU, AHCTF1 / Fold change vs veh, AHCTF1 / RFU, TFRC / Fold change vs veh, TFRC / RFU, ZDHHC17 / Fold change vs veh, ZDHHC17 / RFU, NOM1 / Fold change vs veh, NOM1 / RFU, ARL8B / Fold change vs veh, ARL8B / RFU, ZBTB11 / Fold change vs veh, ZBTB11 / RFU, TAMM41 / Fold change vs veh, TAMM41 / RFU, KIAA1704 /// LOC100996395 / Fold change vs veh, KIAA1704 /// LOC100996395 / RFU, ING1 / Fold change vs veh, ING1 / RFU, TRMT61B / Fold change vs veh, TRMT61B / RFU, FUBP3 / Fold change vs veh, FUBP3 / RFU, TP53 / Fold change vs veh, TP53 / RFU, TNKS2 / Fold change vs veh, TNKS2 / RFU, ZFP14 / Fold change vs veh, ZFP14 / RFU, ACTR2 / Fold change vs veh, ACTR2 / RFU, PPP3R1 / Fold change vs veh, PPP3R1 / RFU, PIK3R1 / Fold change vs veh, PIK3R1 / RFU, HNRNPA1 / Fold change vs veh, HNRNPA1 / RFU, RNF170 / Fold change vs veh, RNF170 / RFU, ZNF28 / Fold change vs veh, ZNF28 / RFU, RNGTT / Fold change vs veh, RNGTT / RFU, OGT / Fold change vs veh, OGT / RFU, BRD1 / Fold change vs veh, BRD1 / RFU, MARS / Fold change vs veh, MARS / RFU, ZNF655 / Fold change vs veh, ZNF655 / RFU, FAHD1 / Fold change vs veh, FAHD1 / RFU, BDP1 / Fold change vs veh, BDP1 / RFU, LRRCC1 / Fold change vs veh, LRRCC1 / RFU, ARID1A / Fold change vs veh, ARID1A / RFU, ZNF146 / Fold change vs veh, ZNF146 / RFU, ZNF330 / Fold change vs veh, ZNF330 / RFU, GPN3 / Fold change vs veh, GPN3 / RFU, C9orf123 / Fold change vs veh, C9orf123 / RFU, N4BP2L2 / Fold change vs veh, N4BP2L2 / RFU, ARFIP1 / Fold change vs veh, ARFIP1 / RFU, FAM179B / Fold change vs veh, FAM179B / RFU, BCL10 / Fold change vs veh, BCL10 / RFU, UHRF1BP1L / Fold change vs veh, UHRF1BP1L / RFU, BET1 / Fold change vs veh, BET1 / RFU, CNOT2 / Fold change vs veh, CNOT2 / RFU, ZNF268 / Fold change vs veh, ZNF268 / Fold change vs veh, ZNF507 / RFU, DGCR2 / Fold change vs veh, DGCR2 / RFU, WDSUB1 / Fold change vs veh, WDSUB1 / Fold change vs veh, HSP90B1 /// MIR3652 / RFU, ADSS / Fold change vs veh, ADSS / RFU, GK / Fold change vs veh, GK / RFU, ZNF148 / Fold change vs veh, ZNF148 / RFU, TAF9 / Fold change vs veh, TAF9 / RFU, SLC1A5 / Fold change vs veh, SLC1A5 / RFU, SLMO2 / Fold change vs veh, SLMO2 / RFU, ABCC4 / Fold change vs veh, ABCC4 / RFU, LOC101060439 /// RAP1B / Fold change vs veh, LOC101060439 /// RAP1B / RFU, RFX7 / Fold change vs veh, RFX7 / RFU, GTPBP10 / Fold change vs veh, GTPBP10 / RFU, CNEP1R1 / Fold change vs veh, CNEP1R1 / RFU, BIVM-ERCC5 /// ERCC5 / Fold change vs veh, BIVM-ERCC5 /// ERCC5 / RFU, ILF3 / Fold change vs veh, ILF3 / RFU 11762660_at / Fold change /veh 11762660_at / RFU VCAN (11757783_s_at) / Fold change /veh VCAN (11757783_s_at) / RFU DDX43 (11728927_at) / Fold change /veh DDX43 (11728927_at) / RFU KRT8 (11758188_x_at) / Fold change /veh KRT8 (11758188_x_at) / RFU NKD1 (11759106_at) / Fold change /veh NKD1 (11759106_at) / RFU SRD5A1 (11742802_a_at) / Fold change /veh SRD5A1 (11742802_a_at) / RFU TPSAB1 /// TPSB2 (11721975_s_at) / Fold change /veh TPSAB1 /// TPSB2 (11721975_s_at) / RFU GSTM3 (11746129_a_at) / Fold change /veh GSTM3 (11746129_a_at) / RFU IL23R (11737362_x_at) / Fold change /veh IL23R (11737362_x_at) / RFU TMEM51 (11727254_a_at) / Fold change /veh TMEM51 (11727254_a_at) / RFU PIWIL2 (11732686_x_at) / Fold change /veh PIWIL2 (11732686_x_at) / RFU ORM1 (11744905_x_at) / Fold change /veh ORM1 (11744905_x_at) / RFU CCDC152 (11743942_at) / Fold change /veh CCDC152 (11743942_at) / RFU ECM1 (11717891_a_at) / Fold change /veh ECM1 (11717891_a_at) / RFU IL23R (11748794_a_at) / Fold change /veh IL23R (11748794_a_at) / RFU TNFAIP8L3 (11732012_x_at) / Fold change /veh TNFAIP8L3 (11732012_x_at) / RFU MBOAT4 (11741988_at) / Fold change /veh MBOAT4 (11741988_at) / RFU 11764193_at / Fold change /veh 11764193_at / RFU TMEM53 (11763286_at) / Fold change /veh TMEM53 (11763286_at) / RFU MAGEB2 (11727129_at) / Fold change /veh MAGEB2 (11727129_at) / RFU TMEM200A (11744735_a_at) / Fold change /veh TMEM200A (11744735_a_at) / RFU CCDC152 (11751479_a_at) / Fold change /veh CCDC152 (11751479_a_at) / RFU FAM211A (11726209_a_at) / Fold change /veh FAM211A (11726209_a_at) / RFU RGS16 (11746705_a_at) / Fold change /veh RGS16 (11746705_a_at) / RFU VCAN (11755009_s_at) / Fold change /veh VCAN (11755009_s_at) / RFU RHOB (11743442_s_at) / Fold change /veh RHOB (11743442_s_at) / RFU RGS16 (11720943_a_at) / Fold change /veh RGS16 (11720943_a_at) / RFU RGS16 (11720944_at) / Fold change /veh RGS16 (11720944_at) / RFU, VPS4B / Fold change vs veh, VPS4B / RFU, CREB1 / Fold change vs veh, CREB1 / RFU, DNAJC13 / Fold change vs veh, DNAJC13 / RFU, GNAQ / Fold change vs veh, GNAQ / RFU, CDK5R1 / Fold change vs veh, CDK5R1 / RFU, ZRANB3 / Fold change vs veh, ZRANB3 / RFU, CUL4A / Fold change vs veh, CUL4A / RFU, CCNY / Fold change vs veh, CCNY / RFU, UFL1 / Fold change vs veh, UFL1 / RFU, COG3 / Fold change vs veh, COG3 / RFU, DIAPH2 / Fold change vs veh, DIAPH2 / RFU, SKA2 / Fold change vs veh, SKA2 / RFU, AFF3 / Fold change vs veh, AFF3 / RFU, LMF1 / Fold change vs veh, LMF1 / RFU, IPO11 / Fold change vs veh, IPO11 / RFU, DFFB / Fold change vs veh, DFFB / RFU, FOXP1 / Fold change vs veh, FOXP1 / RFU, CARD8 / Fold change vs veh, CARD8 / RFU, STRN3 / Fold change vs veh, STRN3 / RFU, ADK / Fold change vs veh, ADK / RFU, RASSF2 / Fold change vs veh, RASSF2 / RFU, WIPF1 / Fold change vs veh, WIPF1 / RFU, LARP1B / Fold change vs veh, LARP1B / RFU, RASA1 / Fold change vs veh, RASA1 / RFU, RB1 / Fold change vs veh, RB1 / RFU, PPFIA1 / Fold change vs veh, PPFIA1 / RFU, MAT2A / Fold change vs veh, MAT2A / RFU, CCT5 / Fold change vs veh, CCT5 / RFU, WDR92 / Fold change vs veh, WDR92 / RFU, CUX1 / Fold change vs veh, CUX1 / RFU, TTC7A / Fold change vs veh, TTC7A / RFU, TMEM135 / Fold change vs veh, TMEM135 / RFU, DEPTOR / Fold change vs veh, DEPTOR / RFU, CPM / Fold change vs veh, CPM / RFU, DNAJB6 / Fold change vs veh, DNAJB6 / RFU, CACNA2D3 / Fold change vs veh, CACNA2D3 / RFU, DTX4 / Fold change vs veh, DTX4 / RFU, TFCP2 / Fold change vs veh, TFCP2 / RFU, GMCL1 /// GMCL1P1 / Fold change vs veh, GMCL1 /// GMCL1P1 / RFU, AEBP2 / Fold change vs veh, AEBP2 / RFU, SNHG1 /// SNORD22 /// SNORD25 /// SNORD26 /// SNORD27 /// SNORD28 /// SNORD29 /// SNORD31 / Fold change vs veh, SNHG1 /// SNORD22 /// SNORD25 /// SNORD26 /// SNORD27 /// SNORD28 /// SNORD29 /// SNORD31 / Fold change (Aza/veh), C12orf56 (ProbeSet 11735607_a_at) / Fold change (ACY-1035/veh), C12orf56 (ProbeSet 11735607_a_at) / Fold change (Aza/veh), FGFR1OP (ProbeSet 11751329_s_at) / Fold change (ACY-1035/veh), FGFR1OP (ProbeSet 11751329_s_at) / Fold change (Aza/veh), VPS36 (ProbeSet 11739960_a_at) / Fold change (ACY-1035/veh), VPS36 (ProbeSet 11739960_a_at) / RFU SYPL1 (11715823_x_at) / Fold change /veh SYPL1 (11715823_x_at) / RFU IGFBP7 (11715501_s_at) / Fold change /veh IGFBP7 (11715501_s_at) / RFU REEP3 (11722064_at) / Fold change /veh REEP3 (11722064_at) / RFU IGLL1 (11728026_x_at) / Fold change /veh IGLL1 (11728026_x_at): dose or concentration left out as unconfirmed
Conditions: MV-4-11 cells, 48 hours

Compound: Nc1ccc(-c2cccs2)cc1NC(=O)c1ccc2c(c1)cc(C1CC1)n2CCN1CCOCC1 [ACY-1035]
- RFU ANKRD19P (11752326_a_at): 5.89 RFU
